Starred links: 1 amine or outer side, 2 acyl side, 3 side chain; linkers in the order of their positions; H or OH if unused. Positions of bridges follow the written chain, without caps; N, C: chain ends. Non-standard residues stand in square brackets, D forms with d. Residues, ends and D or L forms follow the SMILES beside them. No end group written: not given here. X1 = CC(=O)NC(C(=O)OC(C(C)C)C(N[*:1])C(=O)[*:2])C(O)C(C)C; PhLac = O=C(O)[CH](O)Cc1ccccc1; NMeT = CN[CH](C(=O)O)[CH](C)O; NMeA = CN[CH](C)C(=O)O; NMeDha = C=C(NC)C(=O)O
Tests used:
GLUTag cells = test: GLP-1 secretion from control-transduced or untransduced GLUTag cells; type: cell-based, murine
Method: (§1) GLUTag cells were maintained in Dulbecco’s Modified Eagle Medium (DMEM) supplemented with 10% fetal bovine serum and 1% penicillin–streptomycin in a humidified incubator at 37 °C and 5% CO2. For adenovirus transduction, GLUTag cells were seeded into poly-D-lysine coated 96-well plates or 4-chamber slides. The next day, cells were transduced with adenoviruses (100–1250 viral particles per cell at time of seeding) as indicated. After 24–30 h, adenovirus-containing media was changed to serum-free growth media for overnight serum starvation. The following day, GLUTag cells were used for cAMP or calcium signaling assays, GLP-1 secretion assays, or immunostaining and imaging.
(§2) GLUTag cells were seeded into poly-D-lysine-coated 96-well plates and transduced with adenovirus as specified above and then tested for GLP-1 secretion. Medium was removed and cells were washed two times with GLP-1 secretion buffer (138 mM NaCl, 4.5 mM KCl, 4.2 mM NaHCO3, 2.5 mM CaCl2, 1.2 mM MgCl2, 10 mM HEPES, 1 mM glucose, and 0.1% bovine serum albumin, pH 7.4). Cells were stimulated for 2 h with indicated treatments diluted in GLP-1 secretion buffer for a total volume of 200 µL/well at 37 °C and 5% CO2. Plates were then centrifuged at 300× g for 1 min at 4 °C, and 75 µL of the supernatant was removed and frozen at −80 °C until subsequent GLP-1 quantification. Total GLP-1 was quantified using the Meso Scale Discovery Total GLP-1 V-PLEX kit (Rockville, MD, USA; K1503PD) according to manufacturer’s instructions. For PTX treatment conditions, cells were pretreated with 100 ng/mL PTX overnight. For experiments with YM-254890, cells were pretreated for 15 min at 37 °C and 5% CO2.

hGPR17L [1] = molecular target: T1, hGPR17L (Homo sapiens, UniProt Q13304); test: GLP-1 secretion from GLUTag cells expressing hGPR17L; type: cell-based; parameters: host or cells: GLUTag cells (murine enteroendocrine line), adenoviral transduction
T1 sequence (Q13304 whole entry): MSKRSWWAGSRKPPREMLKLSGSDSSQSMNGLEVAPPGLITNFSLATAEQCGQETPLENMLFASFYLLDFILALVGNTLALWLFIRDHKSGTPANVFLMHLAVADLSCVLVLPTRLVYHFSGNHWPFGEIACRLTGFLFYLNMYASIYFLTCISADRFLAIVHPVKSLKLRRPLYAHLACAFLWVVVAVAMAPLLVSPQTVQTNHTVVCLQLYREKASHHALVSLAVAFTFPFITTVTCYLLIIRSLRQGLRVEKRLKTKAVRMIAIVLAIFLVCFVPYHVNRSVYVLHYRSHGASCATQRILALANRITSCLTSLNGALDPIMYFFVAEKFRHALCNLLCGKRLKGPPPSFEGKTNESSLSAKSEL
Method: as §1, §2

hGPR17L [2] = molecular target: T1, hGPR17L; test: Endpoint cAMP (HTRF) in GLUTag cells expressing hGPR17L; type: cell-based; parameters: host or cells: GLUTag cells (murine enteroendocrine line), adenoviral transduction; conditions: for Predicted (LS) mean diff.: Fig 2B, Forskolin, +Vehicle vs. +100 nM YM-254890
Method: as §1
Endpoint cAMP measurements were conducted as follows. GLUTag cells were seeded into poly-D-lysine-coated 96-well plates and transduced with adenovirus as specified above and then tested for cAMP signaling. Medium was removed and cells were washed with cAMP stimulation buffer (Hanks’ balanced salt solution (HBSS), 20 mM HEPES, pH 7.4) and then incubated in cAMP stimulation buffer for 30 min at 37 °C and 5% CO2. Cells were then treated for 30 min with agonist and forskolin in the presence of 500 µM IBMX at 37 °C and 5% CO2. Stimulation buffer was then decanted, and cAMP lysis buffer (50 mM HEPES, 10 mM CaCl2, 0.35% Triton X-100, and 500 µM IBMX) was added and shaken at 700 rpm for 1 h. Lysate was transferred to a 384-well plate, and the cAMP levels were quantified using the Cisbio HTRF cAMP (Gi kit; Revvity, Waltham, MA, USA) according to the manufacturer’s protocol.

hGPR17L [3] = molecular target: T1, hGPR17L; test: Calcium flux (Calcium 6) in GLUTag cells expressing hGPR17L; type: cell-based; parameters: host or cells: GLUTag cells (murine enteroendocrine line), adenoviral transduction
Method: as §1
GLUTag cells were seeded into black, clear bottom, poly-D-lysine-coated 96-well plates. Cells were transduced and serum starved as specified above. Growth medium was then replaced with 100 μL/well assay buffer (HBSS, 20 mM HEPES, pH 7.4) and 100 μL/well Calcium 6 loading dye (R8190; Molecular Devices, San Jose, CA, USA). During dye loading, cells were incubated at 37 °C and 5% CO2 for 2 h. MDL29,951 or KCl was added to the wells and fluorescence (485 nm excitation, 525 nm emission, and 515 nm automatic emission cutoff) was measured using a Molecular Devices FlexStation3 (Molecular Devices) at 37 °C. For experiments with PTX, cells were pretreated with 100 ng/mL PTX overnight and 100 ng/mL PTX was included with Calcium 6 loading dye for calcium flux assays. For experiments with YM-254890, cells were pretreated for 30 min at 37 °C.

Compound: Cc1onc(-c2ccccc2Cl)c1C(=O)N(C)c1ccc(Cl)cc1 [GPBAR-A]
- increase in GLP-1 secretion (GLUTag cells; 10 µM GPBAR-A, control transduction condition): 2.67 ± 0.17 fold

Compound: somatostatin (AGCKNFFWKTFTSC; ends and bridges not checked; cysteine pairing not given here; UniProt P61278 103-116, looked up) [SST, Endogenous somatostatin receptor agonist]
- effect on F/I-stimulated GLP-1 secretion (GLUTag cells; 1 µM SST, control- and hGPR17L-transduced cells (Figure S4A,B)): inhibited

Compound: O=C(O)c1ccc(OCCCc2ccc(OCCCCOC3CCCCC3)cc2)c(C(=O)NC2CCCC(C(=O)O)C2)c1 (centres unmarked) [HAMI3379]
- effect on MDL29,951-mediated inhibition of F/I-stimulated GLP-1 secretion (hGPR17L [1]; 10 µM HAMI3379): significantly attenuated

Compound: CCCCCCCCCCCCCC(=O)O[C@@H]1[C@@H](C)[C@@]2(O)[C@@H](C=C(CO)C[C@]3(O)C(=O)C(C)=C[C@@H]23)[C@@H]2C(C)(C)[C@]12OC(C)=O [PMA, phorbol 12-myristate 13-acetate]
- increase in GLP-1 secretion (GLUTag cells; 300 nM PMA, control transduction condition): 4.14 ± 0.18 fold

Compound: C=C1C(=O)NC(C)C(=O)N(C)C(C)C(=O)NC(C(OC(=O)C(NC(C)=O)C(O)C(C)C)C(C)C)C(=O)N(C)C(C(C)OC)C(=O)OC(C)C(NC(C)=O)C(=O)OC(Cc2ccccc2)C(=O)N1C (centres unmarked) [YM-254890] (Ac-T[PhLac][NMeDha]A[NMeA][X1][NMeT](Me); ester 1-C; configuration not given here)
- effect on basal cAMP (hGPR17L [2]; 100 ng/mL PTX or 100 nM YM-254890, control- or hGPR17L-transduced): no effects
- Predicted (LS) mean diff. (hGPR17L [2]; log [MDL29,951] (M) -4.0): 17.41
- Predicted (LS) mean diff. (hGPR17L [2]; log [MDL29,951] (M) -4.6): 19.49
- Predicted (LS) mean diff. (hGPR17L [2]; log [MDL29,951] (M) -5.2): 17.04
- Predicted (LS) mean diff. (hGPR17L [2]; log [MDL29,951] (M) -5.8): 11.34
- Predicted (LS) mean diff. (hGPR17L [2]; log [MDL29,951] (M) -6.4): 5.843
- Predicted (LS) mean diff. (hGPR17L [2]; log [MDL29,951] (M) -7.0): 2.922
- Predicted (LS) mean diff. (hGPR17L [2]; log [MDL29,951] (M) -7.6): 8.08
- Predicted (LS) mean diff. (hGPR17L [2]; log [MDL29,951] (M) -8.2): 13.01
- Predicted (LS) mean diff. (hGPR17L [2]; log [MDL29,951] (M) -8.8): 10.15
- Predicted (LS) mean diff. (hGPR17L [2]; log [MDL29,951] (M) -9.4): 6.783
- effect on 15 mM KCl-stimulated calcium mobilization (hGPR17L [3]; 100 ng/mL PTX or 100 nM YM-254890, Figure 2D): no effect
- concentration giving robust inhibition of MDL29,951-stimulated calcium mobilization (hGPR17L [3]; 1 µM MDL29,951, concentration-response): ~ 100 nM
- effect on 15 mM KCl-stimulated calcium flux (hGPR17L [3]; YM-254890 concentration-response, Figure S5D): no effect
- effect on F/I-stimulated GLP-1 secretion (GLUTag cells; 100 nM YM-254890, GLUTag cells): inhibited
- effect on F/I-stimulated GLP-1 secretion (GLUTag cells; 3 µM YM-254890, control cells): strong inhibitory effects
- effect on PMA-stimulated GLP-1 secretion (GLUTag cells; YM-254890 concentration–response, 300 nM PMA): no effect
- effect on PMA-stimulated GLP-1 secretion (hGPR17L [1]; 100 nM YM-254890, 300 nM PMA, control or hGPR17L-expressing cells): no effect
- effect on MDL29,951-mediated inhibition of PMA-stimulated GLP-1 secretion (hGPR17L [1]; 100 nM YM-254890, 100 µM MDL29,951, 300 nM PMA): no effect
- effect on F/I-stimulated GLP-1 secretion (hGPR17L [1]; 3 µM YM-254890, hGPR17L-expressing cells): strong inhibitory effects

Compound: CCCCC[C@H](O)/C=C/[C@H]1[C@H](O)CC(=O)[C@@H]1C/C=C\CCCC(=O)O [PGE2, prostaglandin E2]
- cAMP levels in response to PGE2 stimulation, % of the control-transduced cells (hGPR17L [2]; 300 nM PGE2, hGPR17L-expressing cells): 83 ± 5.5%
- increase in GLP-1 secretion (GLUTag cells; 300 nM PGE2, control transduction condition): 1.90 ± 0.06 fold
